Format in all cases: cell-based, human
One assay has as its system TNF-α. Nature of the assay: Anti-inflammatory activity: TNF-α gene expression by qRT-PCR in LPS-treated keratinocytes. The conditions noted are these: for TNF-α (relative gene expression): 10 μg/ml LPS, NCTC 2544; for Comparison vs LFS (%): TNF-α vs Control + LPS. How it is done:
(§1) The immortalized line of human keratinocytes NCTC2544 is used (Perry V. P. et al., 1957), cultured in sterile flasks ([…]), incubated at 37° C. in a humid atmosphere at 5% CO2 in RPMI culture medium added with bovine fetal serum (FBS), 2 mm glutamine, 1% non-essential amino acids, in the presence of 1% penicillin and streptomycin. The 1:3 split is done every 2 days upon achieving the monolayer by washing with 1×PBS (phosphate buffer without Ca^2+ and Mg^2+) and detachment of cells with a trypsin-EDTA solution at 37° C. for 2 minutes. The cells were kept in culture in 25 cm^3 sterile flasks and incubated at 37° C. in a humid atmosphere at 5% CO2.
(§2) Negative control: untreated cells in RPMI medium added to 2.5% fetal bovine serum (FBS), 1% non-essential amino acids (NEAA), 1% of a penicillin and streptomycin mixture (Pen-Strep Mix), and kept in (12 well) 25 cm^2 culture plates at 37° C. and 5% CO2.
(§3) Positive control: cells in RPMI medium added to 2.5% fetal bovine serum (FBS), 1% non-essential amino acids (NEAA), 1% of a penicillin and streptomycin mixture (Pen-Strep Mix) and 10 μg/mL LPS (lipopolysaccharide) and kept in ([…]) 25 cm^2 culture plates at 37° C. and 5% CO2 (in the dark).
Study of the Anti-inflammatory Activity-NCTC 2544
The gene expression of the TNF-α inflammation marker was evaluated by relative quantitative RT-PCR (quantitative reverse transcription-polymerase chain reaction-qRT-PCR).
(§4) This assay involved three sequential steps: • extraction of total RNA; • retrotranscription in cDNA; • qRT-PCR.
Human keratinocytes NCTC 2544 were seeded in 12-well plates at the density of […] cells/well and incubated until reaching about 80% confluence.
Then, the cells were incubated for 16 and 24 hours with the compounds of the invention to be tested and the respective controls at the following concentrations: 13.5 μM and 27 μM, and admixed (in the well) with 10 μg/ml LPS.
(§5) The dilutions were prepared starting from 1000× stock in DMSO, sterile-filtered and using RPMI medium added to 2.5% fetal bovine serum (FBS), 1% non-essential amino acids (NEAA), 1% of a penicillin and streptomycin mixture (Pen-Strep Mix).
(§6) Cells kept in the culture medium alone (RPMI 2.5% FBS) were used as a negative control.
(§7) Cells in the culture medium alone (RPMI 2.5% FBS) and treated only with 10 μg/mL LPS were used as a positive control.
(§8) After incubation, the RNA was extracted. Total RNA was extracted from NCTC 2544 cells using the commercial kit Ribospin™ (GeneAllBiotechnology Co., LTD).
At the end of incubation with the active compounds of the invention, cells were washed with PBS (1×) and finally subjected to RNA extraction procedure. At the end of the extraction, using a spectrophotometer (Jenway UV/VIS MOD: 6715, BS-6715B0), concentrations were calculated in μg/mL of total RNA extracted at a wavelength of 260 nm.
For RT-PCR amplification, the TaqMan® probe (AppliedBiosystems) method was used. The following TYaqMan probe was used: Hs00174128_m1 (TNF-α). GAPDH: Hs99999905_m1 was used as control gene (housekeeping).
The data obtained were analyzed according to the method of 2-ΔΔCt and so it was possible to calculate the relative values of expression of the gene of interest, normalized compared to the housekeeping gene and calibrated on the control sample (untreated cells): ΔCt=ΔCttarget-housekeeping (control)−ΔCttarget-housekeeping (treated cells)
(§9) The 2^−ΔΔCt was calculated assuming an amplification efficiency of 100%.
For orientation: Real-time PCR tracks product formation cycle by cycle.

The test system of the next assay is involucrin (IVL). Nature of the assay: Skin barrier function protection: involucrin (IVL) gene expression by qRT-PCR in LPS-treated keratinocytes. Particulars: 13.5 μM, with LPS, Control + LPS = 1.000. How it is done: as §1, §2, §3
(§10) Study of the Skin Barrier Function Protection
(§11) The gene expression of the involucrin (IVL) and fillagrin (FLG) markers was evaluated by relative quantitative RT-PCR (quantitative reverse transcription-polymerase chain reaction-qRT-PCR).
as §4
(§12) Human keratinocytes NCTC2544 were seeded in 12-well plates at the density of 0.5*10^6 cells/well and incubated until reaching about 80% confluence.
(§13) Then, the cells were incubated for 16 and 24 hours with the active compounds to be tested and the respective controls at the following concentrations: 13.5 and 27 μM, and admixed (in the well) with 10 μg/ml LPS.
as §5, §6, §7, §8
(§14) For RT-PCR amplification, the TaqMan® probe (AppliedBiosystems) method was used. The following TYaqMan probe was used: Hs00846307_s1 (IVL) and Hs00863478_g1 (FLG).
(§15) GAPDH: Hs99999905_m1 was used as control gene (housekeeping).
(§16) The data obtained were analyzed according to the method of 2-ΔΔCt and so it was possible to calculate the relative values of expression of the gene of interest, normalized compared to the housekeeping gene and calibrated on the control sample (untreated cells): ΔΔCt=ΔCttarget-housekeeping (control)−ΔCttarget-housekeeping (treated cells)
as §9

A further assay relates to fillagrin (FLG). Nature of the assay: Skin barrier function protection: filaggrin (FLG) gene expression by qRT-PCR in LPS-treated keratinocytes. The conditions noted are these: 13.5 μM, with LPS, Control + LPS = 1.000. How it is done:
as §1, §2, §3, §10, §11, §4, §12, §13, §5, §6, §7, §8, §14, §15, §16, §9

We go through five molecules from patent US10550094B2, “Compounds having antioxidant activity against free radicals and anti-inflammatory activity, and corresponding pharmaceutical or cosmetic compositions for skin care” (GIULIANI S.P.A., priority 2015, dated 2020).

Take `OCC1OC(c2ccco2)OC(CO)C1O` (centres unmarked) [Xylitil furfural, xylitil furfural]: the “TNF-α (relative gene expression)” value in the assay on TNF-α (13.5 μM, 16 h) turned out to be 0.03; in the assay on TNF-α (13.5 μM, 24 h), 0.03; in the assay with TNF-α (27 μM, 16 h), 0.18; with TNF-α (27 μM, 24 h) it was 0.18. Also, the “Comparison vs LFS (%)” value with TNF-α (13.5 μM, 16 h) is on record as 98.96%; in the assay on TNF-α (13.5 μM, 24 h), 99.85%; in the assay on TNF-α (27 μM, 16 h), 94.37%; in the assay with TNF-α (27 μM, 24 h) it was 99.10%. The “anti-inflammatory activity (TNF-α), assessment in words” value (shortened to “anti-inflammatory activity (TNF-α)”) in the assay with TNF-α (lower dose) is recorded as “remarkable”. For the same molecule, the “(IVL) 16 h RQ ± SEM” value with involucrin (IVL) came to 60.653 ± 14.549. In addition, the “(FLG) 16 h RQ ± SEM” value in the assay with fillagrin (FLG) is recorded as 64.669 ± 6.930.

Take `OCC(O)C1OC(c2ccccc2)OC(CO)C1O` (centres unmarked) [Sorbityl benzal, sorbityl benzal]: the “TNF-α (relative gene expression)” value in the assay with TNF-α (13.5 μM, 16 h) turned out to be 0.39; in the assay on TNF-α (13.5 μM, 24 h), 0.71; with TNF-α (27 μM, 16 h), 0.08; with TNF-α (27 μM, 24 h), 0.01. The “Comparison vs LFS (%)” value in the assay with TNF-α (13.5 μM, 16 h) was found to be 87.93%; with TNF-α (13.5 μM, 24 h) it was 96.50%; in the assay with TNF-α (27 μM, 16 h), 97.62%; in the assay with TNF-α (27 μM, 24 h), 99.97%. In the assay with TNF-α (higher dose), the “anti-inflammatory activity (TNF-α)” value is on record as “particularly significant”. Further, the “(IVL) 16 h RQ ± SEM” value in the assay on involucrin (IVL) stood at 6.646 ± 1.733. Moreover, the “(FLG) 16 h RQ ± SEM” value in the assay on fillagrin (FLG) is reported as 16.971 ± 2.987.

Take `O=C(OCC1OC(c2ccco2)OC(C(COC(=O)c2ccccc2)OC(=O)c2ccccc2)C1OC(=O)c1ccccc1)c1ccccc1` (centres unmarked) [Tetrabenzoyl sorbityl furfural, tetrabenzoyl sorbityl furfural]: the “TNF-α (relative gene expression)” value in the assay on TNF-α (13.5 μM, 16 h) is 0.63; with TNF-α (13.5 μM, 24 h), 2.51; in the assay with TNF-α (27 μM, 16 h) it was 0.45; with TNF-α (27 μM, 24 h), 0.28. For the same molecule, the “Comparison vs LFS (%)” value in the assay on TNF-α (13.5 μM, 16 h) was 80.28%; with TNF-α (13.5 μM, 24 h), 87.69%; in the assay on TNF-α (27 μM, 16 h), 85.81%; in the assay with TNF-α (27 μM, 24 h) it was 98.63%. The “(IVL) 16 h RQ ± SEM” value in the assay on involucrin (IVL) was 9.563 ± 1.159. Also, the “(FLG) 16 h RQ ± SEM” value with fillagrin (FLG) stood at 22.864 ± 7.892.

On to `CC(=O)OCC1OC(c2ccco2)OC(C(COC(C)=O)OC(C)=O)C1OC(C)=O` (centres unmarked) [Tetracetyl sorbityl furfural, tetracetyl sorbityl furfural], for which the “TNF-α (relative gene expression)” value with TNF-α (13.5 μM, 16 h) worked out at 0.35; in the assay with TNF-α (13.5 μM, 24 h), 5.75; in the assay on TNF-α (27 μM, 16 h), 0.28; with TNF-α (27 μM, 24 h), 0.12. Moreover, the “Comparison vs LFS (%)” value is listed as 89.06% in the assay with TNF-α (13.5 μM, 16 h); 71.78% with TNF-α (13.5 μM, 24 h); 91.18% in the assay with TNF-α (27 μM, 16 h); 99.39% in the assay on TNF-α (27 μM, 24 h). Further, in the assay with involucrin (IVL), the “(IVL) 16 h RQ ± SEM” value amounted to 57.282 ± 17.060. For the same molecule, in the assay on fillagrin (FLG), the “(FLG) 16 h RQ ± SEM” value is on record as 11.158 ± 5.679.

On to `COc1cc(C2OC(CO)C(O)C(C(O)CO)O2)ccc1O` (centres unmarked) [Sorbityl vanillinal, sorbityl vanillinal], for which the “TNF-α (relative gene expression)” value came to 0.04 with TNF-α (13.5 μM, 16 h); 0.09 with TNF-α (13.5 μM, 24 h); 0.15 with TNF-α (27 μM, 16 h); 0.21 in the assay with TNF-α (27 μM, 24 h). The “Comparison vs LFS (%)” value in the assay with TNF-α (13.5 μM, 16 h) was 98.64%; with TNF-α (13.5 μM, 24 h), 99.57%; with TNF-α (27 μM, 16 h), 95.44%; in the assay on TNF-α (27 μM, 24 h) it was 98.95%. The “anti-inflammatory activity (TNF-α)” value in the assay with TNF-α (lower dose) is on record as “remarkable”. Also, the “(IVL) 16 h RQ ± SEM” value with involucrin (IVL) amounted to 18.347 ± 1.664. The “(FLG) 16 h RQ ± SEM” value with fillagrin (FLG) is recorded as 4.408 ± 2.683.
